The data set is described as follows: activity coefficient (dimensionless); of the first substance listed, at infinite dilution; xn = mol fraction of the nth substance listed. The following applies: Liquid, Chromatography, x1 = 0.

Each structure is given as a SMILES string. Numbers after ± are expanded uncertainties.

As to `CCCCC` [pentane] + COCC[N+]1(C)CCOCC1.O=S(=O)([N-]S(=O)(=O)C(F)(F)F)C(F)(F)F, the activity coefficient turned out to be 25 ± 1.7 (318.15 K); 22.5 ± 1.5 (328.15 K); 20.6 ± 1.4 (338.15 K); 19 ± 1.3 (348.15 K); 17.4 ± 1.2 (358.15 K); 16.3 ± 1.1 (368.15 K).
As for `CCCCCCCCCC` [decane] + COCC[N+]1(C)CCOCC1.O=S(=O)([N-]S(=O)(=O)C(F)(F)F)C(F)(F)F, the activity coefficient runs as follows: (318.15 K) 192 ± 13; (328.15 K) 165 ± 11; (338.15 K) 145 ± 10; (348.15 K) 126 ± 9; (358.15 K) 111 ± 8; (368.15 K) 98.2 ± 6.7.
For the molecule `C=CCCCCCC` [oct-1-ene] + COCC[N+]1(C)CCOCC1.O=S(=O)([N-]S(=O)(=O)C(F)(F)F)C(F)(F)F, the activity coefficient reads like this: (318.15 K) 38.6 ± 2.6; (328.15 K) 34.9 ± 2.4; (338.15 K) 32.5 ± 2.2; (348.15 K) 30.1 ± 2.1; (358.15 K) 27.5 ± 1.9; (368.15 K) 25.9 ± 1.8.
For the molecule `CCC(=O)OC` [methyl propanoate] + COCC[N+]1(C)CCOCC1.O=S(=O)([N-]S(=O)(=O)C(F)(F)F)C(F)(F)F, the activity coefficient is 0.949 ± 0.06 (318.15 K); 0.966 ± 0.061 (328.15 K); 0.982 ± 0.062 (338.15 K); 0.998 ± 0.062 (348.15 K); 1.01 ± 0.06 (358.15 K); 1.03 ± 0.06 (368.15 K).
Take `C=CCCCC` [hex-1-ene] + COCC[N+]1(C)CCOCC1.O=S(=O)([N-]S(=O)(=O)C(F)(F)F)C(F)(F)F: the activity coefficient runs as follows: (318.15 K) 16.5 ± 1.1; (328.15 K) 15.3 ± 1; (338.15 K) 14.3 ± 1; (348.15 K) 13.6 ± 0.9; (358.15 K) 12.9 ± 0.9; (368.15 K) 12.1 ± 0.8.
In the case of `CCCC=O` [butanal] + COCC[N+]1(C)CCOCC1.O=S(=O)([N-]S(=O)(=O)C(F)(F)F)C(F)(F)F, the activity coefficient (318.15 K) turned out to be 0.871 ± 0.056; the activity coefficient (328.15 K) is 0.884 ± 0.056; the activity coefficient (338.15 K) is 0.891 ± 0.057; the activity coefficient (348.15 K) is 0.902 ± 0.057; the activity coefficient (358.15 K) came to 0.909 ± 0.058; the activity coefficient (368.15 K) is 0.918 ± 0.058.
Take `C1CCCCC1` [cyclohexane] + COCC[N+]1(C)CCOCC1.O=S(=O)([N-]S(=O)(=O)C(F)(F)F)C(F)(F)F: the activity coefficient amounted to 18.8 ± 1.3 (318.15 K); 17 ± 1.2 (328.15 K); 15.6 ± 1.1 (338.15 K); 14.4 ± 1 (348.15 K); 13.3 ± 0.9 (358.15 K); 12.3 ± 0.8 (368.15 K).
For the molecule `CCCC(=O)OC` [methyl butanoate] + COCC[N+]1(C)CCOCC1.O=S(=O)([N-]S(=O)(=O)C(F)(F)F)C(F)(F)F, the activity coefficient runs as follows: (318.15 K) 1.42 ± 0.09; (328.15 K) 1.44 ± 0.09; (338.15 K) 1.45 ± 0.1; (348.15 K) 1.45 ± 0.1; (358.15 K) 1.46 ± 0.1; (368.15 K) 1.48 ± 0.1.
In the case of `CCc1ccccc1` [ethylbenzene] + COCC[N+]1(C)CCOCC1.O=S(=O)([N-]S(=O)(=O)C(F)(F)F)C(F)(F)F, the activity coefficient reads like this: (318.15 K) 3.27 ± 0.22; (328.15 K) 3.21 ± 0.22; (338.15 K) 3.16 ± 0.22; (348.15 K) 3.1 ± 0.21; (358.15 K) 3.04 ± 0.21; (368.15 K) 2.99 ± 0.2.
Regarding `CCO` [ethanol] + COCC[N+]1(C)CCOCC1.O=S(=O)([N-]S(=O)(=O)C(F)(F)F)C(F)(F)F, the activity coefficient (318.15 K) was determined as 1.77 ± 0.12; the activity coefficient (328.15 K) came to 1.61 ± 0.11; the activity coefficient (338.15 K) was 1.49 ± 0.1; the activity coefficient (348.15 K) stood at 1.36 ± 0.09; the activity coefficient (358.15 K) came to 1.26 ± 0.08; the activity coefficient (368.15 K) worked out at 1.17 ± 0.07.
Turning to `C=Cc1ccccc1` [styrene] + COCC[N+]1(C)CCOCC1.O=S(=O)([N-]S(=O)(=O)C(F)(F)F)C(F)(F)F, the activity coefficient came out at 1.77 ± 0.12 (318.15 K); 1.77 ± 0.12 (328.15 K); 1.76 ± 0.12 (338.15 K); 1.76 ± 0.12 (348.15 K); 1.76 ± 0.12 (358.15 K); 1.76 ± 0.12 (368.15 K).
As to `C=CCCC` [1-pentene] + COCC[N+]1(C)CCOCC1.O=S(=O)([N-]S(=O)(=O)C(F)(F)F)C(F)(F)F, the activity coefficient is, setting by setting: (318.15 K) 11 ± 0.8; (328.15 K) 10.3 ± 0.7; (338.15 K) 9.79 ± 0.67; (348.15 K) 9.25 ± 0.63; (358.15 K) 8.83 ± 0.6; (368.15 K) 8.35 ± 0.57.
On to `C=CCCCCCCCC` [1-decene] + COCC[N+]1(C)CCOCC1.O=S(=O)([N-]S(=O)(=O)C(F)(F)F)C(F)(F)F, for which the activity coefficient runs as follows: (318.15 K) 87.8 ± 6; (328.15 K) 78.8 ± 5.4; (338.15 K) 72.1 ± 4.9; (348.15 K) 65.7 ± 4.5; (358.15 K) 59.4 ± 4.1; (368.15 K) 54.9 ± 3.8.

Source of the values: the NIST ThermoML archive (doi:10.1016/j.jct.2011.11.021).
